Reference: patent publication EP0126012B1, “Pharmaceutical compositions containing symmetrical disulfides” (SANOFI S.A., priority 1983, dated 1984)

Legend:
[1] = test system: globules rouges des drépanocytaires; assay: Inhibition of sickling of human erythrocytes from sickle-cell patients under deoxygenation (Nomarski microscopy); type: cell-based, humains; settings: inhibition de la falciformation des érythrocytes; incubation 1 h at 37°C, pH 7,40, with product; molar ratio produit/hémoglobine initially 0,5 to 20; ratio used for the table values not given
Protocol: L'inhibition de la falciformation des érythrocytes humains a été évaluée selon la méthode consistant à laver et incuber dans un tampon salin (pH 7,40 - 0,15 M), les globules rouges des drépanocytaires pendant une heure à 37°C dans un bainmarie sous agitation circulaire en présence du produit ci-dessus à différentes concentrations. Dans cette opération le rapport molaire produit/hémoglobine est testé initialement dans l'intervalle allant de 0,5 à 20. En fonction des résultats obtenus, ce rapport est modifié. A la fin de l'incubation, l'excès de produit est enlevé par lavage. La suspension cellulaire ajustée à un hématocrite de 5 % est transférée dans un Erlenmeyer et incubée à 37°C sous un courant d'un mélange humidifié d'azote et d'oxygène. La concentration d'oxygène est réglée par une pompe à mélange gazeux. Le gaz effluent est transféré dans un autre tube contenant du formaldéhyde. A la fin de l'incubation, la suspension cellulaire est transférée dans le formaldéhyde par simple retournement de la fiole.
La proportion des cellules déformées et de celles ayant les caractéristiques de drépanocytes (présentant deux prolongements filiformes) est évaluée à l'aide d'un microscope ayant une optique interférentielle de NOMARSKY. L'inhibition de la falciformation a été calculée selon la formule suivante: • % cellules falciformées - % cellules falciformées en témoins présence de la drogue % cellules falciformées du témoin

falciformation = settings: literature (Inserm Symposium 1979); cited from earlier work

SMILES: NCCSSCCN [cystamine, reference compound]
- % inhibition [1]: 33%
- inhibition de la falciformation (falciformation): particulièrement active

SMILES: c1cnc(SSc2ncccn2)nc1 [2,2'-dithiodipyrimidine]
- % inhibition [1]: 50%

SMILES: C1CSC(SSC2=NCCS2)=N1 [2,2'-dithiodi(4,5-dihydrothiazole)]
- % inhibition [1]: 90%

SMILES: N=C(N)SSC(=N)N [dithiodiformamidine]
- % inhibition [1]: 100%

SMILES: CN(C)C(=O)CSSCC(=O)N(C)C [dithiodi(N,N-diméthyl)acétamide]
- % inhibition [1]: 95%

SMILES: c1c[nH]c(SSc2ncc[nH]2)n1 [2,2'-dithiodi(1H-imidazole)]
- % inhibition [1]: 80%

SMILES: NC(=O)CSSCC(N)=O [dithio-diacétamide]
- % inhibition [1]: 80%

SMILES: c1nc(SSc2nc[nH]n2)n[nH]1 [3,3'-dithiodi(1H-1,2,4-triazole)]
- % inhibition [1]: 100%
